Test results reported in ChEMBL document CHEMBL3745645, “Synthesis, in vitro antitumor activity, dihydrofolate reductase inhibition, DNA intercalation and structure-activity relationship studies of 1,3,5-triazine analogues” (Bioorg Med Chem Lett, 2016).

Assays:
[1] = Cytotoxicity against human OVCAR3 cells at 10 uM after 48 hrs by SRB assay; format: functional; conditions: OVCAR-3, 48 h, read-out: GI
SN12C = assay: Cytotoxicity against human SN12C cells at 10 uM after 48 hrs by SRB assay; format: functional; conditions: read-out: GI
[2] = Cytotoxicity against human SF539 cells at 10 uM after 48 hrs by SRB assay; format: functional; conditions: SF-539, 48 h, read-out: GI
Dihydrofolate reductase = target: T1, Dihydrofolate reductase (Homo sapiens, UniProt P00374); assay: Inhibition of human recombinant DHFR expressed in Escherichia coli by spectrophotometric analysis
T1 sequence (P00374 whole entry): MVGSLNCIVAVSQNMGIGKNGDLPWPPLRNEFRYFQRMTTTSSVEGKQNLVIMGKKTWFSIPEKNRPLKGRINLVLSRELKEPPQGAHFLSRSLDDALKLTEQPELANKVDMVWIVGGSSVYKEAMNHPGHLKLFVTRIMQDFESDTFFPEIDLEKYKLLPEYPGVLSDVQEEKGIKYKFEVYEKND

[3] = Cytotoxicity against human PC3 cells after 48 hrs by SRB assay; format: functional; conditions: PC-3, 48 h
[4] = Cytotoxicity against human SF268 cells at 10 uM after 48 hrs by SRB assay; format: functional; conditions: SF-268, 48 h, read-out: GI
A498 = assay: Cytotoxicity against human A498 cells at 10 uM after 48 hrs by SRB assay; format: functional; conditions: A498, 48 h, read-out: GI
HT-29 = assay: Cytotoxicity against human HT-29 cells at 10 uM after 48 hrs by SRB assay; format: functional; conditions: HT-29, 48 h, read-out: GI
[5] = Cytotoxicity against human LOXIMVI cells after 48 hrs by SRB assay; format: functional; conditions: LOX IMVI, pooled result: one value given for 9 cell lines, strains, targets or settings
NCI-H226 = assay: Cytotoxicity against human NCI-H226 cells at 10 uM after 48 hrs by SRB assay; format: functional; conditions: NCI-H226, 48 h, read-out: GI
[6] = Cytotoxicity against human RXF393 cells at 10 uM after 48 hrs by SRB assay; format: functional; conditions: RXF 393, 48 h, read-out: GI
[7] = Cytotoxicity against human SW620 cells at 10 uM after 48 hrs by SRB assay; format: functional; conditions: SW-620, 48 h, read-out: GI
KM12 = assay: Cytotoxicity against human KM12 cells at 10 uM after 48 hrs by SRB assay; format: functional; conditions: KM12, 48 h, read-out: GI
[8] = Cytotoxicity against human COLO205 cells at 10 uM after 48 hrs by SRB assay; format: functional; conditions: COLO 205, 48 h, read-out: GI
[9] = Cytotoxicity against human MOLT4 cells at 10 uM after 48 hrs by SRB assay; format: functional; conditions: MOLT-4, 48 h, read-out: GI
NCI-H460 = assay: Cytotoxicity against human NCI-H460 cells at 10 uM after 48 hrs by SRB assay; format: functional; conditions: NCI-H460, 48 h, read-out: GI
K562 = assay: Cytotoxicity against human K562 cells after 48 hrs by SRB assay; format: functional; conditions: K562, 48 h
SR [10] = assay: Cytotoxicity against human SR cells at 10 uM after 48 hrs by SRB assay; format: functional; conditions: read-out: GI
[11] = Cytotoxicity against human IGROV1 cells after 48 hrs by SRB assay; format: functional; conditions: IGROV-1, 48 h, pooled result: one value given for 7 cell lines, strains, targets or settings
[12] = Cytotoxicity against human DU145 cells at 10 uM after 48 hrs by SRB assay; format: functional; conditions: DU-145, 48 h, read-out: GI
MDA-MB-231 = assay: Cytotoxicity against human MDA-MB-231 cells at 10 uM after 48 hrs by SRB assay; format: functional; conditions: MDA-MB-231, 48 h, read-out: GI
CCRF-CEM [13] = assay: Cytotoxicity against human CCRF-CEM cells after 48 hrs by SRB assay; format: functional
Malme-3M = assay: Cytotoxicity against human MALME-3M cells at 10 uM after 48 hrs by SRB assay; format: functional; conditions: read-out: GI
NCI-H522 = assay: Cytotoxicity against human NCI-H522 cells at 10 uM after 48 hrs by SRB assay; format: functional; conditions: NCI-H522, 48 h, read-out: GI
SR [14] = assay: Cytotoxicity against human SR cells after 48 hrs by SRB assay; format: functional
[15] = Cytotoxicity against human HOP92 cells at 10 uM after 48 hrs by SRB assay; format: functional; conditions: HOP-92, 48 h, read-out: GI
[16] = Cytotoxicity against human OVCAR8 cells at 10 uM after 48 hrs by SRB assay; format: functional; conditions: OVCAR-8, 48 h, read-out: GI
CCRF-CEM [17] = assay: Cytotoxicity against human CCRF-CEM cells at 10 uM after 48 hrs by SRB assay; format: functional; conditions: read-out: GI
MDA-MB-468 = assay: Cytotoxicity against human MDA-MB-468 cells at 10 uM after 48 hrs by SRB assay; format: functional; conditions: MDA-MB-468, 48 h, read-out: GI
[18] = Cytotoxicity against human HL-60(TB) cells after 48 hrs by SRB assay; format: functional; conditions: HL-60, 48 h, read-out: LC50 (the source's name)
[19] = Cytotoxicity against human LOXIMVI cells at 10 uM after 48 hrs by SRB assay; format: functional; conditions: LOX IMVI, read-out: GI
[20] = Cytotoxicity against human RPMI8226 cells after 48 hrs by SRB assay; format: functional; conditions: RPMI-8226, 48 h, read-out: LC50 (the source's name)
SK-MEL-2 = assay: Cytotoxicity against human SK-MEL-2 cells at 10 uM after 48 hrs by SRB assay; format: functional; conditions: SK-MEL-2, 48 h, read-out: GI
T47D = assay: Cytotoxicity against human T47D cells at 10 uM after 48 hrs by SRB assay; format: functional; conditions: read-out: GI
[21] = Cytotoxicity against human SKOV3 cells at 10 uM after 48 hrs by SRB assay; format: functional; conditions: SK-OV-3, 48 h, read-out: GI
MCF7 = assay: Cytotoxicity against human MCF7 cells after 48 hrs by SRB assay; format: functional; conditions: MCF7, 48 h, pooled result: one value given for 6 cell lines, strains, targets or settings
[22] = Cytotoxicity against human OVCAR5 cells at 10 uM after 48 hrs by SRB assay; format: functional; conditions: OVCAR-5, 48 h, read-out: GI
[23] = Cytotoxicity against human DU145 cells after 48 hrs by SRB assay; format: functional; conditions: DU-145, 48 h, read-out: LC50 (the source's name)
SK-MEL-5 = assay: Cytotoxicity against human SK-MEL-5 cells at 10 uM after 48 hrs by SRB assay; format: functional; conditions: SK-MEL-5, 48 h, read-out: GI
[24] = pooled result: one value given for 2 cell lines, strains, targets or settings
[25] = pooled result: one value given for 6 cell lines, strains, targets or settings

Which inhibition of growth at 10 µM [1] does the source give for Cc1nc2cc(Nc3nc(Nc4ccc(F)cc4)nc(-c4cccs4)n3)ccc2n1Cc1ccccc1 here?
The inhibition of growth at 10 µM was 33.3%.

What about the inhibition of growth at 10 µM (SN12C) of the same compound?
The inhibition of growth at 10 µM was 29.7%.

And the inhibition of growth at 10 µM [2]?
Its inhibition of growth at 10 µM is 40.1%.

And the IC50 (Dihydrofolate reductase)?
Its IC50 is 0.72 µM.

What about the LC50 [3] of the same compound?
The LC50 was greater than 100 µM.

What about the GI50 [3, 24] of the same compound?
The GI50 was 5.2 µM.

What about the TGI [3, 24] of the same compound?
Its TGI is 52.2 µM.

And the inhibition of growth at 10 µM [4]?
The inhibition of growth at 10 µM was 36.3%.

And the inhibition of growth at 10 µM (A498)?
Its inhibition of growth at 10 µM is 44%.

What about the inhibition of growth at 10 µM (HT-29) of the same compound?
Its inhibition of growth at 10 µM is 79.5%.

What about the GI50 [5] of the same compound?
Its GI50 is 4.72 µM.

What about the LC50 [5] of the same compound?
The LC50 was 39 µM.

And the TGI [5]?
Its TGI is 19.7 µM.

And the inhibition of growth at 10 µM (NCI-H226)?
The inhibition of growth at 10 µM was 35%.

And the inhibition of growth at 10 µM [6]?
Its inhibition of growth at 10 µM is 74.1%.

What about the inhibition of growth at 10 µM [7] of the same compound?
The inhibition of growth at 10 µM was 31.9%.

And the inhibition of growth at 10 µM (KM12)?
Its inhibition of growth at 10 µM is 74.8%.

And the inhibition of growth at 10 µM [8]?
Its inhibition of growth at 10 µM is 43.2%.

What about the inhibition of growth at 10 µM [9] of the same compound?
The inhibition of growth at 10 µM was 76.5%.

And the inhibition of growth at 10 µM (NCI-H460)?
Its inhibition of growth at 10 µM is 60.4%.

And the LC50 (K562)?
The LC50 was greater than 100 µM.

What about the inhibition of growth at 10 µM (SR [10]) of the same compound?
Its inhibition of growth at 10 µM is 82%.

What about the GI50 [11] of the same compound?
Its GI50 is 8.83 µM.

And the LC50 (concentration killing 50% of cells) [11]?
The LC50 (concentration killing 50% of cells) was 75.7 µM.

And the TGI [11]?
The TGI was 27.3 µM.

What about the inhibition of growth at 10 µM [12] of the same compound?
The inhibition of growth at 10 µM was 24.8%.

And the inhibition of growth at 10 µM (MDA-MB-231)?
The inhibition of growth at 10 µM was 30.9%.

What about the LC50 (CCRF-CEM [13]) of the same compound?
The LC50 was greater than 100 µM.

What about the GI50 (CCRF-CEM [13]; [25]) of the same compound?
The GI50 was 2.59 µM.

And the TGI (CCRF-CEM [13]; [25])?
The TGI was 9.49 µM.

What about the inhibition of growth at 10 µM (Malme-3M) of the same compound?
The inhibition of growth at 10 µM was 22.4%.

And the inhibition of growth at 10 µM (NCI-H522)?
Its inhibition of growth at 10 µM is 46.5%.

And the LC50 (concentration killing 50% of cells) (SR [14])?
The LC50 (concentration killing 50% of cells) was greater than 100 µM.

What about the inhibition of growth at 10 µM [15] of the same compound?
Its inhibition of growth at 10 µM is 78%.

What about the inhibition of growth at 10 µM [16] of the same compound?
Its inhibition of growth at 10 µM is 63%.

And the inhibition of growth at 10 µM (CCRF-CEM [17])?
Its inhibition of growth at 10 µM is 72.8%.

What about the inhibition of growth at 10 µM (MDA-MB-468) of the same compound?
Its inhibition of growth at 10 µM is 66.8%.

What about the CC50 [18] of the same compound?
Its CC50 is greater than 100 µM.

What about the inhibition of growth at 10 µM [19] of the same compound?
Its inhibition of growth at 10 µM is 35.1%.

And the CC50 [20]?
The CC50 was greater than 100 µM.

And the inhibition of growth at 10 µM (SK-MEL-2)?
The inhibition of growth at 10 µM was 27.1%.

What about the inhibition of growth at 10 µM (T47D) of the same compound?
The inhibition of growth at 10 µM was 76.7%.

What about the inhibition of growth at 10 µM [21] of the same compound?
Its inhibition of growth at 10 µM is 4.89%.

What about the GI50 (MCF7) of the same compound?
Its GI50 is 5.24 µM.

What about the LC50 (concentration killing 50% of cells) (MCF7) of the same compound?
Its LC50 (concentration killing 50% of cells) is 79.2 µM.

And the TGI (MCF7)?
The TGI was 21.9 µM.

What about the inhibition of growth at 10 µM [22] of the same compound?
The inhibition of growth at 10 µM was 7.98%.

What about the CC50 [23] of the same compound?
The CC50 was greater than 100 µM.

And the inhibition of growth at 10 µM (SK-MEL-5)?
The inhibition of growth at 10 µM was 23.5%.
